From paper PMC7647782, “Cytotoxic, Antioxidant, and Metabolic Enzyme Inhibitory Activities of Euphorbia cyparissias Extracts” (Oxidative Medicine and Cellular Longevity, 2020)
Values after ≈ are worked out from the molar mass of the structure shown. Values belong to the molecule of their own block, whether it stands above or below them.

Columns and labels:
[1] = target: β-glucosidase; test: β-Glucosidase activity inhibition; format: biochemical
Procedure: [20], respectively. […] The enzymes β-glucosidase, α-amylase, and XO were purchased from Sigma-Aldrich (St. Louis, MO, USA). The β-glucosidase activity was determined by measuring the 4-nitrophenol […] (4-NPGP) product. […] Then, the mixture was incubated with color reagent NPGP (180 μL) for more 15 min at 37°C. […] The activity was evaluated by measuring absorbance at 405 nm with a microplate reader. The same equation used to measure α-amylase activity was used to measure that of β-glucosidase.

[2] = target: dromedary lipase (DrPL); test: Lipase activity inhibition, dromedary lipase; format: biochemical; details: mean ± SD of triplicate
Excerpt: Dromedary (DrPlA2-IB), porcine (PPPlA2-IB), and stingray group IB phospholipases (SPLA2-IB) were purified and prepared as described in our previous works and De Haas et al., respectively. Dromedary (DrPL), stingray (SPL), and porcine (PPL) lipases were also purified according to protocols optimized in previous works. The enzymes β-glucosidase, α-amylase, and XO were purchased from Sigma-Aldrich (St. Louis, MO, USA).
The inhibitory effect of ethanolic and aqueous extracts of E. cyparissias on dromedary, stingray, and porcine lipase activities were investigated at different concentrations ranging from 0 to 100 μg/mL. The assay was carried out by incubating 12 IU of enzymes (50 μL) with 10 μL of extract. A positive control using commercial orlistat (Xenical, Hoffmann-La Roche) was run in parallel in the same conditions. Inhibition of lipase activities was expressed as the percentage of residual activity after incubation with Euphorbia extracts compared to the negative control ([…]). Lipase activities were measured using tributyrin as a substrate under the optimal conditions for each enzyme, as previously described. The IC50 values correspond to the half maximal inhibitory concentration.
The activities of these lipases were measured using the pH-stat technique on olive oil emulsion at optimal conditions for enzyme activity. […]

[3] = target: SPLA2-IB; test: Phospholipase activity inhibition, stingray PLA2-IB; format: biochemical; details: stingray group IB phospholipase
Procedure: The phospholipase activities were measured based on the De Araújo and Radvanyi method [24]. The inhibitory effect of various extracts was determined using samples of dromedary, stingray, and porcine digestive group IB phospholipases (PLA2-IB). A 10 μL sample of ethanolic or aqueous extract was mixed with 10 μL of PLA2-GIB and preincubated for 20 min at room temperature. The mixture was added to 1 mL of the substrate, which was composed of lecithin (3.5 mM) solubilized in 100 mM NaCl, 3 mM sodium taurodeoxycholate, 10 mM CaCl2, and 0.055 mM red phenol at a pH of 7.6. […] The inhibition percentage was calculated by measuring residual activity compared to negative control assay (absence of extract). The IC50 values were determined from the curve.
Values represent the mean ± SD of triplicate measurements.

[4] = target: chymotrypsin (Bos taurus, UniProt P00766); test: Protease activity inhibition, chymotrypsin; format: biochemical; details: unit as in head of Table 4
Procedure: (§1) The trypsin and chymotrypsin activity inhibition was performed as described by Kunitz. An aliquot of 1 mL of ethanolic or water extract was incubated for 15 min at 37°C with an equal volume of the enzyme. The mixture was then incubated for 30 min at 37°C with 2 mL of 2% casein as the substrate. The reaction was stopped by adding 2.5 mL of 5% trichloroacetic acid (TCA). The activity was determined by measuring the absorbance of the mixture at 280 nm, after 15 min of centrifugation at 15 000 rpm. Ethanol was used as a negative control and Bowman-Birk Inhibitor (BBI) as a positive control. The protease activity inhibition was also expressed as inhibition percentage, which was determined by comparing the results with those of a control experiment.

[5] = DPPH radical scavenging assay
Procedure: In every sample of E. cyparissias extract, the antioxidant activity was evaluated by using the DPPH radical scavenging and reducing power assays as previously described in the literature. To measure DPPH activity, a sample of 0.5 mL for each concentration was mixed with an equal volume of DPPH ethanolic solution and incubated in darkness for 1 h at ambient temperature. The activity was determined by comparing the absorbance at 519 nm of DPPH radicals to that of the control (containing all reagents except the extract).

[6] = target: T1, trypsin (Bos taurus, UniProt P00760); test: Protease activity inhibition, trypsin; format: biochemical; details: unit as in head of Table 4
T1 construct: gene PRSS1
T1 sequence (P00760 24-246): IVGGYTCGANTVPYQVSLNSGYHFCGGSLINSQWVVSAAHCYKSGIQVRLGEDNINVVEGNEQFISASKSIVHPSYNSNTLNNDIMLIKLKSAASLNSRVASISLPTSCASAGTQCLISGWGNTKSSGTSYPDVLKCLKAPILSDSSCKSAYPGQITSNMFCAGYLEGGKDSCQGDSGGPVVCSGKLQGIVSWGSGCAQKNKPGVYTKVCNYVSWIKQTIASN
Procedure: as §1

- IC50 β-Glucosidase [1]: 26.2 ± 2.5 µg/mL (≈ 40.6 µM)
Molecule: C[C@H]1O[C@H](O[C@H]2[C@H](O)[C@@H](O)[C@@H](O[C@H]3[C@H](O)[C@@H](O)C(O)O[C@@H]3CO)O[C@@H]2CO)[C@H](O)[C@@H](O)[C@@H]1N[C@H]1C=C(CO)[C@@H](O)[C@H](O)[C@H]1O (stereo partly shown) [Acarbose]

Molecule: CCCCCCCCCCC[C@@H](C[C@@H]1OC(=O)[C@H]1CCCCCC)OC(=O)[C@H](CC(C)C)NC=O [Orlistat, orlistat]
- IC50 DrPL [2]: 97.2 ± 2.5 µg/mL (≈ 196 µM)

Molecule: CC1(C)CC[C@]2(C(=O)O)CC[C@]3(C)C(=CC[C@@H]4[C@@]5(C)CC[C@H](O)C(C)(C)[C@@H]5CC[C@]43C)[C@@H]2C1 [Oleanolic acid, oleanolic acid]
- IC50 SPLA2-IB [3]: 82.8 ± 5.7 µg/mL (≈ 181 µM)

- IC50 Chymotrypsin [4]: 0.0108 ± 0.0004 µg/mL
Molecule: BBI: Bowman-Birk Inhibitor, positive control for trypsin and chymotrypsin inhibition

- DPPH IC50 ([5]; from Figure 5(b), unit as printed for BHT): ~54 µg/mL
Molecule: Cc1cc(C(C)(C)C)c(O)c(C(C)(C)C)c1 [BHT, butylated hydroxytoluene]
- DPPH scavenging activity ([5]; at a concentration of 1 mg/mL): 95.3 ± 0.4%

- IC50 Trypsin [6]: 0.0115 ± 0.0004 µg/mL
B1: BBI: Bowman-Birk Inhibitor, positive control for trypsin and chymotrypsin inhibition (protein)
chain: DDESSKPCCDQCACTKSNPPQCRCSDMRLNSCHSACKSCICALSYPAQCFCVDITDFCYEPCKPSEDDKEN
modifications: seven intrachain disulfides; Check residues are the known reactive sites Lys16 and Leu43 in mat
